Assay results from patent US9499551B2, “Substituted pyrrolo[2,3-b]pyridines for treating cancer or inflammatory diseases” (Confluence Life Sciences, Inc., priority 2014, dated 2016).

How the values were obtained:
[1] = system: IL-6 Production in Human Peripheral Blood Mononuclear Cells (PBMC); experiment: LPS stimulated IL-6 production in PBMC cells; assay type: cell-based; details: read-out: IL-6 Production Inhibition IC50
[2] = target: T1, TAK1-TAB1 (Homo sapiens, UniProt O43318); experiment: TAK1-TAB1 binding inhibitory potency (LanthaScreen competitive binding assay, kinase tracer-236); details: 10 nM TAK1-TAB1, 100 nM kinase tracer-236; read-out: TAK1-Tab Inhibition IC50
T1 sequence (O43318 with tags, fused parts or gaps limits assumed): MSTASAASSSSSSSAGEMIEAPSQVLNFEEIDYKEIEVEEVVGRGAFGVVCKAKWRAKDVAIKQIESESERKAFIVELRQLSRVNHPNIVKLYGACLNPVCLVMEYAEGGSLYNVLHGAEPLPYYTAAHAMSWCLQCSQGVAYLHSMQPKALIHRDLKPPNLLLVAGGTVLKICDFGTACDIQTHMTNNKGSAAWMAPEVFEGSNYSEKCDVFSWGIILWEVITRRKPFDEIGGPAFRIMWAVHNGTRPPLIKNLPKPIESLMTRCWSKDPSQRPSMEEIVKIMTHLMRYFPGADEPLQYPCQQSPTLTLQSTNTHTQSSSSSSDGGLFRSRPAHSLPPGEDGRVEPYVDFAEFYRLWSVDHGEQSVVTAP
How it was run: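 Compounds were tested for TAK1-TAB1 binding in a 384-well LanthaScreen competitive FRET assay. TAK1-TAB1 (10 nM) and Eu-anti-his antibody (2 nM) were preincubated with compound for two hours before adding 100 nM Alexa Fluor 647 kinase tracer-236. The buffer was 20 mM HEPES pH 7.5, 10 mM MgCl2, 0.01% BSA, 0.0005% Tween-20 and 2% DMSO. IC50 came from 4-parameter logistic fits of emission ratio over an 11-point series from 20 μM to 0.34 nM.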

| IC50 [2] [nM] | SMILES | IC50 [1] [nM] |
| --- | --- | --- |
| ≤ 1000 | CC(C)Oc1ccnc2[nH]cc(/C=C/C(N)=O)c12 [Example 7, (E)-3-(4-Isopropoxy-1H-pyrrolo[2,3-b]pyridin-3-yl)acrylamide] | ≤ 1000 |
| ≤ 1000 | NC(=O)/C=C/c1c[nH]c2ncc(N3CCN(C(=O)C4CCCC4)CC3)cc12 [Example 278, (E)-3-(5-(4-(cyclopentane-carbonyl)piperazin-1-yl)-1H-pyrrolo[2,3-b]pyridin-3-yl)acrylamide] | > 1000 |
| ≤ 1000 | N#C/C(=C\c1c[nH]c2ncc(-c3ccccc3)cc12)C(N)=O [Example 226, (E)-2-Cyano-3-(5-phenyl-1H-pyrrolo[2,3-b]pyridin-3-yl)acrylamide] | ≤ 1000 |
| ≤ 1000 | NC(=O)/C=C/c1c[nH]c2ncc(-c3ccncc3)cc12 [Example 259, (E)-3-(5-(pyridin-4-yl)-1H-pyrrolo[2,3-b]pyridin-3-yl)acrylamide] | ≤ 1000 |
| ≤ 1000 | NC(=O)/C=C/c1c[nH]c2ncc(-c3ccc(C(=O)N4CCCC4)nc3)cc12 [Example 281, (E)-3-(5-(6-(pyrrolidine-1-carbonyl)pyridin-3-yl)-1H-pyrrolo[2,3-b]pyridin-3-yl)acrylamide] | > 1000 |
| ≤ 1000 | CC(C)Nc1cnc2[nH]cc(/C=C/C(N)=O)c2n1 [Example 10, 3-(2-Isopropylamino-5H-pyrrolo[2,3-b]pyrazin-7-yl)-acrylamide] | ≤ 1000 |
| ≤ 1000 | N#Cc1cccc(-c2cnc3[nH]cc(/C=C/C(N)=O)c3c2)c1 [Example 18, 3-[5-(3-Cyano-phenyl)-1H-pyrrolo[2,3-b]pyridin-3-yl]-acrylamide] | ≤ 1000 |
| ≤ 1000 | NC(=O)/C=C/c1c[nH]c2ncc(-c3ccc(C(=O)NC4CC4)cc3)cc12 [Example 270, (E)-4-(3-(3-amino-3-oxoprop-1-en-1-yl)-1H-pyrrolo[2,3-b]pyridin-5-yl)-N-cyclopropyl-benzamide] | > 1000 |
| ≤ 1000 | CC(=O)/C=C/c1c[nH]c2ncc(-c3cccnc3)cc12 [Example 251, (E)-4-(5-(pyridin-3-yl)-1H-pyrrolo[2,3-b]pyridin-3-yl)but-3-en-2-one] | > 1000 |
